From patent US11820973B2, “Methods and system for interfering with viability of bacteria and related compounds and compositions” (CALIFORNIA INSTITUTE OF TECHNOLOGY, priority 2011, dated 2023)
Entries after “also recorded” stand apart in the source; their conditions may differ.

How the values were obtained:
[1] = tested on: P. aeruginosa PA14 Δphz mutant; experiment: Intracellular NADH/NAD^+ ratio in stationary phase cultures; assay type: cell-based, Pseudomonas aeruginosa; conditions: for Effect on intracellular NADH/NAD^+ ratios: stationary phase, 30 mM nitrate, pyocyanin in the micromolar range
Method: (A) Growth and pyocyanin production for wild type P. aeruginosa PA14 grown aerobically in 10 ml LB in 18×150 mM tubes. (B) NADH/NAD^+ ratios for cultures grown under the same conditions as those described in part (A). At 7 hours, pyocyanin production in the wild type cultures was visible by eye. 45 μM (half the expected final concentration) was added to the Δphz cultures to be tested for complementation, and 15 mM KNO3 was added to cultures to be tested for the effect of an additional electron acceptor. At 9 hours, pyocyanin in the wild type cultures had increased to near-maximum concentrations, so a second dose of pyocyanin or KNO3 was added to the appropriate cultures, for final concentrations of 90 μM and 30 mM, respectively. Water was added to negative controls. Eleven hours after inoculation, and 2 hours after the addition of the final dose of pyocyanin, NAD(H) was extracted and assayed for each culture. (C), NADH/NAD^+ ratios for cultures treated as in part (B), but with varying concentrations of pyocyanin added. (D) NADH and NAD^+ concentrations for cultures described in (B), normalized to OD (500 nm). Error bars represent the standard deviations of triplicate samples. OD, optical density. wt, wild type.
Two×1 ml of culture were sampled into two separate microcentrifuge tubes and centrifuged at 16,000×g for 1 min. Supernatant was removed and pellets were resuspended in 300 μl of 0.2 M NaOH (for NADH extraction) or 0.2 M HCl (for NAD^+ extraction). […] Supernatants were transferred to fresh tubes and stored at −80° C. until quantification.
A master reagent mix was prepared with 1× Bicine buffer (2.0 M, pH 8.0), 8× water, 1×80 mM EDTA, 2×100% EtOH, 2×4.2 mM thiazolyl blue (MTT), and 4×16.6 mM phenazine ethosulfate. […] The microtiter plate was incubated at 30° C., mixed by brief shaking, and read every 30-60 seconds for absorbance at 570 nm, which is the spectral peak of MTT that increases upon reduction. Slopes arising from plots of absorbance at 570 nm over time were generated for NADH and NAD^+ standards as well as all samples. […]

P. aeruginosa = experiment: Planktonic growth rates with iron chelators; assay type: cell-based, Pseudomonas aeruginosa
[2] = tested on: P. aeruginosa PA14 mature biofilms; experiment: MBEC assay, dissolution of mature biofilms; assay type: cell-based, Pseudomonas aeruginosa; conditions: 100 or 200 μM Ferrozine®; 24 h exposure
Method: (§1) In some examples, biofilm prevention and dissolution were measured via a high-throughput biofilm assay (MBEC Physiology and Genetics Assay) consisting of a 96-well plate into which a 96-peg plastic lid fits. This lid also fits over a standard 96-well plate, which was subsequently used to test the efficacy of iron chelators. Inoculum was prepared by diluting (30-fold) a 1.0 McFarland suspension of P. aeruginosa PA14 in TSB. 150 μl, was dispensed into each of the 60 inner wells, while 200 μl, of sterile trypticase soy broth (TSB) was placed in each perimeter well. For dissolution experiments, plates were incubated at 37° C. for 24 h, and were transferred to an anaerobic chamber for 24 h at 37° C. in anaerobic TSB containing 50 mM KNO3. Biofilms were then exposed to conalbumin and/or Ferrozine® for 24 h. Each treatment was complemented with the addition of 80 μM ferrous ammonium sulfate. After treatment, lids were rinsed once in 50 mM HEPES, air dried for 10 min and quantified by crystal violet staining. For biofilm prevention, anaerobic inoculum was amended with conalbumin and/or Ferrozine®. Media was replaced every 24 h by transferring the MBEC lid to a sterile plate containing growth media+/− treatments, and biofilms were allowed to develop for 168 h. Biomass was quantified as described above. Biological triplicates and six technical replicates (n=18) were used for each treatment.

[3] = tested on: P. aeruginosa PA14 biofilm; experiment: MBEC assay, anaerobic biofilm prevention; assay type: cell-based, Pseudomonas aeruginosa
Method: as §1

[4] = tested on: P. aeruginosa PA14 wild-type colonies; experiment: Colony biofilm morphology, wild type; assay type: cell-based, Pseudomonas aeruginosa; conditions: 0.2 M of either compound added to the agar
Method: FIG. 8. […] Each day colonies from three independent experiments were scanned and their surface coverage was determined. Representative images of colonies at day 2, 4 and 6 are shown (A; scale bar is 1 cm). The data in (B) show the average surface coverage and standard deviation for the three independent experiments. (C) Phenazine titrations. […] Surface coverage of colonies from three independent experiments was determined after incubation at 20° C. for 7 days. Bars indicate the standard deviation.
Colony biofilms were grown on agar containing 1% tryptone as previously described. Three colonies from independent spottings were documented for 8 days using an Epson scanner.

[5] = tested on: P. aeruginosa PA14 siderophore null strain (ΔpvdAΔpchE); experiment: Flow cell biofilm development, siderophore null strain, 1% TSB; conditions: 10 μM PYO
[6] = tested on: P. aeruginosa PA14 wild type; experiment: Flow cell biofilm development, wild type, 1% TSB with or without conalbumin; conditions: wild type; for Rescue of the conalbumin-induced biofilm defect: 10 μM phenazine added to conalbumin-treated 1% TSB, 6 days
[7] = tested on: P. aeruginosa PA14 Δphz1/2; experiment: Swarming motility, Δphz1/2; assay type: cell-based, Pseudomonas aeruginosa; conditions: 100 μM in the swarming agar
Method: (§2) FIG. 6. Δphz1/2 has increased swarming motility. Quantification of swarming motility. Images of three swarming plates for each strain or condition were captured, exported to Adobe Photoshop and the agar surface covered by the swarms was quantified using the Analysis Tools.
(§3) Swimming, swarming and twitching motilities were determined as previously described.

[8] = tested on: P. aeruginosa PA14 Δphz1/2; experiment: Flow cell biofilms in 10% LB, COMSTAT analysis; assay type: cell-based, Pseudomonas aeruginosa
Method: Flow cell biofilms were grown under constant flow at 22° C. in 1.5×4×34 mm flow cells. Continuous flow of 10% LB was supplied with a peristaltic pump at a constant rate of […]. An early stationary-phase culture was diluted to an optical density at 500 nm of around 0.1 and 300 μl were inoculated into the flow cell. Strains expressing eyfp constitutively were used to visualize the biofilms. Upon inoculation, cells were allowed to attach in the absence of flow for 1.5 h before flow was resumed. Developing biofilms were imaged in 3 dimensions using a Leica confocal microscope. eYFP was excited with a 488 nm laser beam kept at constant intensity throughout the experiment, and emission from 510 to 618 nm was collected. Routinely, the Applicant observed that the distribution of bacterial cells throughout the colonized surface varied depending on the region of the flow cell, probably due to factors such as flow or accumulation of planktonic cells. To assure reproducibility, all images were acquired from an area set in the middle of the flow cell. Three images of duplicate flow cell lines were recorded and at least two independent experiments were performed.
To measure the impact of phenazines on biofilm formation directly, a flow cell system was first used to grow wild-type and Δphz1/2 biofilms. In this system, the wild type formed heterogeneous biofilms that after 4 days developed large and abundant microcolonies (FIG. 7A). Biofilms of Δphz1/2 were flatter and consisted of fewer and smaller aggregates scattered throughout the field of view (FIG. 7B). The morphology of 4-day-old biofilms was analyzed using COMSTAT. A fixed threshold value and connected volume filtration were used for all image stacks. Table 6 summarizes the values calculated for mean biofilm thickness, substratum coverage, number of microcolonies at the substratum, surface-to-volume ratio and maximum biofilm thickness for three independent experiments. […] PCA was not tested under these conditions. The mean thickness, the number of microcolonies and the total biomass volume all increased, reaching numbers similar or even higher than those observed for the wild type (Table 6).

[9] = tested on: P. aeruginosa PA14 Δphz mutant; experiment: Pyruvate excretion, HPLC of culture filtrates; assay type: cell-based, Pseudomonas aeruginosa; conditions: 50 μM pyocyanin added to the Δphz mutant upon entry into stationary phase
Method: FIG. 13. Wild type P. aeruginosa PA14 excretes pyruvate in stationary phase, and addition of pyocyanin to Δphz mutant cultures restores the pyruvate excretion phenotype. Cultures were inoculated into MOPS synthetic medium amended with 50 mM glucose (initial OD (500 nm)=0.03). To complement pyruvate excretion, 50 μM pyocyanin was added to the Δphz culture at the time when pyocyanin reached its maximum concentration in the wild type cultures (approximately 12 hours after inoculation). 20 μl of culture filtrates at the 24-hour time point were loaded onto an anion exchange column and subjected to an isocratic gradient in 5 mM H2SO4. Pyruvate peaks (1305, 1310) are indicated by arrows. The elution time of pyruvate drifts slightly but averages around 10.5 minutes. Results shown are representative of three separate experiments. Other peak identities are described in the text.
Two hundred μl were sampled from MOPS-glucose cultures (10 ml in an 18×150 mm test tube) at regular intervals and filtered (0.2 μm pore). In cases where repeated sampling from the same culture would alter the total culture volume by more than 10%, multiple identical cultures were inoculated from the same pre-culture and sampled sequentially. […] Compounds were detected by UV absorbance at 210 nm. Absolute concentrations of pyruvate were calculated using a standard curve for pyruvate diluted in MOPS buffer. […]

[10] = tested on: P. aeruginosa PA14 wild type; experiment: Swarming motility, wild type; assay type: cell-based, Pseudomonas aeruginosa; conditions: 100 μM in the swarming agar
Method: as §2, §3

[11] = tested on: Pseudomonas aeruginosa genes/operons; experiment: DNA microarrays and quantitative RT-PCR; assay type: cell-based; conditions: P. aeruginosa PA14
Description: Strikingly, mexGHI-opmD and PA2274 were previously shown to be regulated by the PA14 quorum sensing network that controls the production of virulence factors (including phenazines). Through mutational analysis, it is shown that pyocyanin is the physiological signal for the upregulation of these quorum sensing controlled genes during stationary phase and that the response is mediated by the transcription factor SoxR. Our results implicate phenazines as signaling molecules in both P. aeruginosa PA14 and PAO1. Examples are shown in the paper: Dietrich et al. 2006, The phenazine pyocyanin is a terminal signaling factor in the quorum sensing network of Pseudomonas aeruginosa, Molecular Microbiology Vol. 61, No. 5, page 1308-1321, incorporated herein by reference in its entirety.

[12] = tested on: P. aeruginosa PA14 Δphz1/2 colonies; experiment: Colony biofilm morphology and surface coverage, Δphz1/2; assay type: cell-based, Pseudomonas aeruginosa; conditions: for Effect on rugosity and surface coverage of colonies: 0.2 M of either compound added to the agar
[13] = tested on: P. aeruginosa PA14 phenazine null strain (Δphz); experiment: Flow cell biofilm development, phenazine null strain, 1% TSB; conditions: 10 μM PCA in the medium flow of the Δphz mutant; by day 6
[14] = 4 day-old biofilms, Δphz1/2, 25 μM pyocyanin

With `O=[N+]([O-])[O-].[K+]` [Nitrate, KNO3] the “Effect on intracellular NADH/NAD^+ ratios” value [1] was “effected decreases in intracellular NADH/NAD^+ ratios”.

In the case of `O.O=S(=O)([O-])c1ccc(-c2nc(-c3ccccn3)nnc2-c2ccc(S(=O)(=O)O)cc2)cc1.[Na+]` [Ferrozine®, 3-(2-Pyridyl)-5,6-diphenyl-1,2,4-triazine-p,p′-disulfonic acid monosodium salt hydrate], the “Effect on planktonic growth rates” value (P. aeruginosa) is reported as “Neither compound affected planktonic growth rates”, the “Dissolution of mature biofilm” value [2] is reported as about 20% and the “Reduction of biofilm accumulation” value ([3]; 100 μM Ferrozine®, ˜10 μM Fe(II) and 10 μM Fe(III) present) is reported as 24%. For the same compound, the “Reduction of biofilm accumulation” value ([3]; 200 μM Ferrozine®) was “reduced it slightly further”.

With `Cn1c2cccc(=O)c-2nc2ccccc21` [PYO, Pyocyanin] the “Effect on the structure of colonies” value [4] was “did not noticeably affect the structure of wild-type colonies”, the “Rescue without Fe(OH)3(s) relative to rescue with Fe(OH)3(s) addition” value [5] was 2 times and the “Rescue of the conalbumin-induced biofilm defect” value [6] was “did not rescue the conalbumin-induced biofilm defect”. For the same compound, the “Effect on swarming motility” value [7] was “had no inhibitory effect on swarming of either the wild type or Δphz1/2”, the “Effect on Δphz1/2 flow cell biofilms” value ([8]; 25 μM pyocyanin) was “larger microcolonies and thicker biofilms resulted” and the “% Coverage at substratum” value [8, 14] was 15.2 ± 2.46%. For the same compound, the Average colony volume [8, 14] was 8170 μm^3, the “Average size of colonies at substratum” value [8, 14] was 102.6 ± 31 μm^2 and the Average thickness [8, 14] was 5.6 ± 1.6. The Maximum thickness [8, 14] was 57.5 ± 1.9, the Roughness coefficient [8, 14] was 1.3 and the “Surface to volume ratio” value [8, 14] was 6.6 ± 0.6 μm^2/μm^3. For the same compound, the “Total biomass” value ([8]; 4 day-old biofilms, Δphz1/2, 25 μM pyocyanin in the medium from the beginning) was 4.3 ± 1 μm^3/μm^2, the Number of microcolonies ([8]; 4 day-old biofilms, Δphz1/2, 25 μM pyocyanin, minimum microcolony size at the substratum 10 μm^2) was 8 ± 1.5 and the Pyruvate excretion phenotype [9] was “complemented the pyruvate excretion phenotype”. For the same compound, the “Effect on NADH/NAD^+ ratio” value ([1]; 90 μM oxidized pyocyanin added to Δphz mutant cultures) was “reduced the NADH/NAD^+ ratio to the wild type level”, the “Effect on intracellular NADH/NAD^+ ratios” value [1] was “effected decreases in intracellular NADH/NAD^+ ratios” and the “Effect on swarming motility” value [10] was “had no inhibitory effect on swarming of either the wild type or Δphz1/2”. The “Effect on gene expression” value [11] was “elicits the upregulation of genes/operons that function in transport; also recorded: downregulates genes involved in ferric iron acquisition”, the “Increased surface coverage compared to wild-type colonies” value ([12]; 0.1 M pyocyanin) was 50% and the “Effect on rugosity and surface coverage of colonies” value [12] was “significantly decreased rugosity and surface coverage of Δphz1/2 colonies”. The “Agar surface covered more than wild-type colonies” value ([12]; pyocyanin 0.2M or higher) was 35%.

`O=C(O)c1cccc2nc3ccccc3nc12` [PCA, Phenazine-1-carboxylic acid] was tested, and the “Effect on the structure of colonies” value [4] was “did not noticeably affect the structure of wild-type colonies”, the “Rescue of the conalbumin-induced biofilm defect” value [6] was “rescued the defect” and the “Increase of biofilm biomass compared to biofilms treated with conalbumin alone” value ([6]; PCA added to conalbumin-treated medium, day 6) was 13 factor. For the same compound, the “Wild type biofilm development with PCA added to the control medium” value ([6]; no conalbumin) was “developed similarly with respect to structure and biomass regardless of whether PCA was added”, the “Effect on swarming motility” value [7] was “significantly decreased the motility of the Δphz1/2 mutant” and the “Effect on swarming motility” value [10] was “had no effect on the wild type”. The “Increase of biofilm biomass” value [13] was “four times”, the “Effect on surface coverage of colonies” value ([12]; 0.1M PCA, titration) was “sufficient to decrease surface coverage of Δphz1/2 colonies to wild-type levels” and the “Effect on rugosity and surface coverage of colonies” value [12] was “significantly decreased rugosity and surface coverage of Δphz1/2 colonies”. For the same compound, the “Effect on surface coverage of colonies” value ([12]; higher concentrations of PCA (up to 0.4M)) was “had no additional effects”.
